Measurements reported in patent US9290710B2, “Synergistic antimicrobial composition” (Dow Global Technologies LLC, priority 2009, dated 2016).

Legend:
[1] = system: oil field isolated anaerobic consortium, mainly SRB; assay: Biocidal efficacy (MBC, complete kill) of THPS, HHT and THPS/HHT against SRB, 40° C., 24 hour; type: cell-based, Sulfate Reducing Bacteria (SRB); settings: alone or in THPS/HHT blend, 10^6 to 10^7 CFU/mL
Experimental: Inside an anaerobic chamber (Bactron anaerobic chamber), a deaerated sterile salt solution (3.1183 g of NaCl, 1.3082 mg of NaHCO3, 47.70 mg of KCl, 72.00 mg of CaCl2, 54.49 mg of MgSO4, 172.28 mg of Na2SO4, 43.92 mg of Na2CO3 in 1 L water) was contaminated with an oil field isolated anaerobic consortium, mainly SRB, at final bacterial concentrations of 10^6 to 10^7 CFU/mL. The aliquots of this contaminated water were then treated with THPS and hexahydro-1,3,5-tris(2-hydroxyethyl)-s-triazine (HHT), or the THPS/HHT combination at different active concentration levels. […] Table 1 summarizes the efficacy of each biocide and their blend, and the Synergy Index*^1 of each combination. *^1Synergy Index=Ca/CA+Cb/CB
• Ca: Concentration of biocide A required to achieve a complete bacterial kill when used in combination with Biocide B • CA: Concentration of biocide A required to achieve a complete bacterial kill when used alone • Cb: Concentration of biocide B required to achieve a complete bacterial kill when used in combination with Biocide A • CB: Concentration of biocide B required to achieve a complete bacterial kill when used alone A Synergy Index less than 1 indicates synergy.

[2] = system: Psedomonas aeruginosa ATCC 10145 and Staphylococcus aureus ATCC 6538; assay: Biocidal efficacy of THPS, NaOPP and THPS/NaOPP against aerobic bacteria (99.999% reduction); type: cell-based; settings: alone or in THPS/NaOPP blend, PBS buffer (pH7), 37° C., 24 hour
Experimental: A PBS buffer (pH7) was contaminated with Psedomonas aeruginosa ATCC 10145 and Staphylococcus aureus ATCC 6538 at final bacterial concentration of −10^6 CFU/ml. […] After the mixtures were incubated at 37° C. for 24 hour, the viable bacteria were enumerated using serial dilution method. The biocidal efficacy was determined by minimum tested biocide concentration for 99.999% bacterial reduction in the aliquots.

[3] = system: oil field isolated SRB consortium; assay: Biocidal efficacy (MBC, complete kill) of THPS, NaOPP and THPS/NaOPP against SRB; type: cell-based, Sulfate Reducing Bacteria (SRB); settings: alone or in THPS/NaOPP blend, 40° C., 24 hours, 10^6 to 10^7 CFU/mL
Experimental: Inside an anaerobic chamber (Bactron anaerobic chamber), a deaerated sterile salt solution (3.1183 g of NaCl, 1.3082 mg of NaHCO3, 47.70 mg of KCl, 72.00 mg of CaCl2, 54.49 mg of MgSO4, 172.28 mg of Na2SO4, 43.92 mg of Na2CO3 in 1 L water) was contaminated with an oil field isolated SRB consortium, at final bacterial concentrations of 10^6 to 10^7 CFU/mL. The aliquots of this contaminated water were then treated with THPS, NaOPP, or the THPS/NaOPP combinations at different active concentration levels. After the mixtures were incubated at 40° C. for 24 hours, the viable bacteria in the aliquots were detected in culture medium. The biocidal efficacy was determined by minimum tested biocide concentration for a complete bacterial kill in the aliquots (MBC). Table 4 summarizes the efficacy of each biocide and their blends, and the Synergy Index of each combination.

[4] = system: oil field isolated anaerobic consortium, mainly SRB; assay: Biocidal efficacy of THPS, NaOPP and THPS/NaOPP against anaerobic bacteria (99.999% reduction); type: cell-based, Sulfate Reducing Bacteria (SRB); settings: alone or in THPS/NaOPP blend, 40° C., 24 hour, 10^7 CFU/mL
Experimental: Inside an anaerobic chamber (Bactron anaerobic chamber), a deaerated sterile salt solution (3.1183 g of NaCl, 1.3082 mg of NaHCO3, 47.70 mg of KCl, 72.00 mg of CaCl2, 54.49 mg of MgSO4, 172.28 mg of Na2SO4, 43.92 mg of Na2CO3 in 1 L water) was contaminated with an oil field isolated anaerobic consortium, mainly SRB, at final bacterial concentrations of 10^7 CFU/mL. […] After the mixtures were incubated at 40° C. for 24 hour, the viable bacteria were enumerated using serial dilution method. The biocidal efficacy was determined by minimum tested biocide concentration for 99.999% bacterial reduction in the aliquots.

[5] = system: oil field isolated anaerobic SRB consortium; assay: Biocidal efficacy of THPS, DXN and THPS/DXN against SRB (99.99% reduction in 24 hours); type: cell-based, Sulfate Reducing Bacteria (SRB); settings: alone or in THPS/DXN blend, 40° C., 10^6 to 10^7 CFU/mL
Experimental: Inside an anaerobic chamber (Bactron III), a deaerated sterile salt solution (3.1183 g of NaCl, 1.3082 mg of NaHCO3, 47.70 mg of KCl, 72.00 mg of CaCl2, 54.49 mg of MgSO4, 172.28 mg of Na2SO4, 43.92 mg of Na2CO3 in 1 L water) was contaminated with an oil field isolated anaerobic SRB consortium at final bacterial concentrations of 10^6 to 10^7 CFU/mL. The aliquots of this contaminated water were then treated with THPS, DXN, or the THPS/DXN combinations at different active concentration levels. After the mixtures were incubated at 40° C. for 24 hour, the viable bacterial number were enumerated using a serial dilution method and the biocidal efficacy was determined by the biocide dosage required for 99.99% bacterial reduction in 24 hours. Synergy Index was then calculated. Table 3 summarizes the efficacy of each biocide and their blends, and the Synergy Index of each combination.
(§1) A Synergy Index less than 1 indicates synergy.

oilfield SRB consortium = assay: Biocidal efficacy of THPS/HHT against anaerobic bacteria in a high temperature and sulfide-rich environment; type: cell-based, Sulfate Reducing Bacteria (SRB); settings: alone or in THPS/HHT blend, 80° C., 7 days, daily challenge of SRB and 10 ppm sulfide
Experimental: Inside an anaerobic chamber (BACTRON IV), biocides solutions were challenged with 10^4 to 10^5 CFU/mL of an oilfield SRB consortium and 10 ppm sulfide ion (added in the form of sodium sulfide). The biocide solutions were then incubated at 80° C. under anaerobic condition for 7 days, with daily challenge of the SRB consortium (10^4 to 10^5 CFU/mL) and sulfide ion (10 ppm). The biocidal efficacy was determined by selecting the lowest testing biocide dosage required for 99.999% or complete bacterial kill after both 2 hours and 7 days of heat, SRB and sulfide exposure. Synergy Index was then calculated. Table 2 summarizes the efficacy of each biocide and their blend, and the Synergy Index of each combination.
as §1

“tetrakis(hydroxymethyl)phosphonium sulfate [THPS]” was tested, and the “Average MBC THPS” value ([1]; THPS concentration for complete bacteria kill) was 6.1 active ppm, the “Concentration required for 99.999% bacterial reduction, THPS” value ([2]; THPS) was 26.7 ppm active and the “Average MBC THPS” value ([3]; THPS concentration for complete bacterial kill) was 7.9 active ppm. The “Concentration required for 99.999% bacterial reduction, THPS” value ([4]; THPS) was 11.9 ppm active, the “Dosage required for 99.99% bacterial reduction, THPS” value ([5]; THPS) was 5.5 active ppm and the “Dosage required for 99.999% or complete bacterial kill of both 2 h and 7 day heat, SRB, and sulfide exposure, THPS” value (oilfield SRB consortium; THPS) was 88.9 active ppm.

With `[Na+].[O-]c1ccccc1-c1ccccc1` [NaOPP, sodium o-phenylphenylate] the “Concentration required for 99.999% bacterial reduction, NaOPP” value ([2]; NaOPP) was 202.5 ppm active, the “Average MBC NaOPP” value ([3]; NaOPP concentration for complete bacterial kill) was 333.3 active ppm and the “Concentration required for 99.999% bacterial reduction, NaOPP” value ([4]; NaOPP) was 303.8 ppm active.

`CC(=O)OC1CC(C)OC(C)O1` (stereo not drawn) [DXN, 2,6-dimethyl-1,3-dioxan-4-yl acetate] was tested, and the “Dosage required for 99.99% bacterial reduction, DXN” value ([5]; DXN) was 330.9 active ppm.

`OCCN1CN(CCO)CN(CCO)C1` [HHT, hexahydro-1,3,5-tris(2-hydroxyethyl)-s-triazine] was tested, and the “Average MBC HHT” value ([1]; HHT concentration for complete bacteria kill) was 79.0 active ppm and the “Dosage required for 99.999% or complete bacterial kill of both 2 h and 7 day heat, SRB, and sulfide exposure, HHT” value (oilfield SRB consortium; HHT) was 133.3 active ppm.
